26 molecules from patent US20240246937A1 (MERCK SHARP & DOHME LLC, priority 2021, published 2024) can be followed below.

Structures are written as SMILES.

For this assay, the target named is recombinant IL4I1 (Homo sapiens (Human), UniProt Q96RQ9). The assay is described as follows: IL4I1 Enzymatic Assay (Amplex Red/HRP coupled fluorescence detection of H2O2). In kind it is biochemical. To be noted: 240 min; recombinant IL4I1, four-hour pre-incubation with compound. The essentials: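 Recombinant human IL4I1 (1 nM final) pre-incubated 4 h with compound at ambient temperature in 50 mM Hepes pH 7.0, 0.005% Tween20. Started with 1 mM each Phe/Tyr/Trp plus Amplex Red/HRP; H2O2-derived resorufin fluorescence read after 120 min; EC50 from ten-point 1:3 titration, four-parameter fit.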
recombinant IL4I1, sequence (Q96RQ9 22-567): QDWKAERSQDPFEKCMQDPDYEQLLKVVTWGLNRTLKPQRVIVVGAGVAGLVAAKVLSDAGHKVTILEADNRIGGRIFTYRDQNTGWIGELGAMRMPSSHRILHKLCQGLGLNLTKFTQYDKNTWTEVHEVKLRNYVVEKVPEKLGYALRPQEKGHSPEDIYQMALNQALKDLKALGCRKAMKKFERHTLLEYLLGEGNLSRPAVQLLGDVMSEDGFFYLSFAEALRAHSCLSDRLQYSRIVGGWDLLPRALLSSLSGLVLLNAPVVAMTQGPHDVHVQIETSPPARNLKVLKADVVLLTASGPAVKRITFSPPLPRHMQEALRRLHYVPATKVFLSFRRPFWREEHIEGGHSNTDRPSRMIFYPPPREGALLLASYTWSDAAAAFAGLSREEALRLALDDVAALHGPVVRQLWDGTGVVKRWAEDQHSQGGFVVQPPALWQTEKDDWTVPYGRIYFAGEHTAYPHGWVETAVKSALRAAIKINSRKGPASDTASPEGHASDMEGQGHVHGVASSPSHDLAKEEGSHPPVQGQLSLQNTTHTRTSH
Broadly, the EC50 is the concentration that produces a half-maximal response. With `O=c1c(=O)n(C23CC(F)(C2)C3)ccn1Cc1cc(-c2cccnc2)no1` [Example 224, 1-(3-fluorobicyclo[1.1.1]pentan-1-yl)-4-((3-(pyridin-3-yl)isoxazol-5-yl)methyl)-1,4-dihydropyrazine-2,3-dione], the 50% effective concentration (EC50) was 101 nM. The result for `O=c1c(=O)n(C2(CF)CC2)ccn1Cc1cc(-c2ccccn2)no1` [Example 225, 1-(1-(fluoromethyl)cyclopropyl)-4-((3-(pyridin-2-yl)isoxazol-5-yl)methyl)-1,4-dihydropyrazine-2,3-dione] reads 41 nM; that for `O=C1C(=O)N(C23CC(F)(C2)C3)CCN1Cc1ccc(-c2ccccn2)nn1` [Example 226], 78 nM; that for `O=c1c(=O)n(C2(CF)CC2)ccn1Cc1ccc(-c2cccnc2)nn1` [Example 227, 1-(1-(fluoromethyl)cyclopropyl)-4-((6-(pyridin-3-yl)pyridazin-3-yl)methyl)-1,4-dihydropyrazine-2,3-dione], 69 nM. The result for `O=C1C(=O)N(C23CC(F)(C2)C3)CCN1Cc1ccc(-c2ccccc2F)nn1` [Example 228, 1-(3-fluorobicyclo[1.1.1]pentan-1-yl)-4-((6-(2-fluorophenyl)pyridazin-3-yl)methyl)piperazine-2,3-dione] reads 23 nM; that for `O=c1c(=O)n(C23CC(F)(C2)C3)ccn1Cc1ccc(-c2ccccn2)cn1` [Example 229, 1-([2,3′-bipyridin]-6′-ylmethyl)-4-(3-fluorobicyclo[1.1.1]pentan-1-yl)-1,4-dihydropyrazine-2,3-dione], 54 nM.

As for `O=c1c(=O)n(C23CC(F)(C2)C3)ccn1Cc1ccc(-n2ccnn2)nc1` [Example 230, 1-((6-(1H-1,2,3-triazol-1-yl)pyridin-3-yl)methyl)-4-(3-fluorobicyclo[1.1.1]pentan-1-yl)-1,4-dihydropyrazine-2,3-dione], the EC50 stood at 91 nM.

`O=c1c(=O)n(C2(CF)CC2)ccn1Cc1ccc(-n2cccn2)nc1` [Example 231, 1-((6-(1H-pyrazol-1-yl)pyridin-3-yl)methyl)-4-(1-(fluoromethyl)cyclopropyl)-1,4-dihydropyrazine-2,3-dione]: the EC50 was determined as 22 nM. The result for `O=C1C(=O)N(C23CC(F)(C2)C3)CCN1Cc1cc(-c2ccccn2)no1` [Example 232, 1-(3-fluorobicyclo[1.1.1]pentan-1-yl)-4-((3-(pyridin-2-yl)isoxazol-5-yl)methyl)piperazine-2,3-dione] reads 82 nM; that for `O=c1c(=O)n(C2(CF)CC2)ccn1Cc1ccc(-c2nccs2)nn1` [Example 233, 1-(1-(fluoromethyl)cyclopropyl)-4-((6-(thiazol-2-yl)pyridazin-3-yl)methyl)-1,4-dihydropyrazine-2,3-dione], 54 nM. The result for `O=C1C(=O)N(C23CC(F)(C2)C3)CCN1Cc1ccc(-c2nccs2)nn1` [Example 234, 1-(3-fluorobicyclo[1.1.1]pentan-1-yl)-4-((6-(thiazol-2-yl)pyridazin-3-yl)methyl)piperazine-2,3-dione] reads 40 nM. The result for `O=c1c(=O)n(C2(CF)CC2)ccn1Cc1ccc(-n2ccnn2)nc1` [Example 235, 1-((6-(1H-1,2,3-triazol-1-yl)pyridin-3-yl)methyl)-4-(1-(fluoromethyl)cyclopropyl)-1,4-dihydropyrazine-2,3-dione] reads 18 nM. Consider `O=C1C(=O)N(C23CC(F)(C2)C3)CCN1Cc1ccc(-n2ccnn2)nc1` [Example 236, 1-((6-(1H-1,2,3-triazol-1-yl)pyridin-3-yl)methyl)-4-(3-fluorobicyclo[1.1.1]pentan-1-yl)piperazine-2,3-dione], for which the EC50 came to 533 nM. The result for `O=C1C(=O)N(C23CC(F)(C2)C3)CCN1Cc1ccc(-n2cccn2)nc1` [Example 237, 1-((6-(1H-pyrazol-1-yl)pyridin-3-yl)methyl)-4-(3-fluorobicyclo[1.1.1]pentan-1-yl)piperazine-2,3-dione] reads 346 nM; that for `O=c1c(=O)n(C2(CF)CC2)ccn1Cc1cc(-c2ccccn2)on1` [Example 238, 1-(1-(fluoromethyl)cyclopropyl)-4-((5-(pyridin-2-yl)isoxazol-3-yl)methyl)-1,4-dihydropyrazine-2,3-dione], 29 nM. The result for `O=c1c(=O)n(C2(CF)CC2)ccn1Cc1ccc(-c2ccccn2)nn1` [Example 239, 1-(1-(fluoromethyl)cyclopropyl)-4-((6-(pyridin-2-yl)pyridazin-3-yl)methyl)-1,4-dihydropyrazine-2,3-dione] reads 82 nM; that for `O=C1C(=O)N(C23CC(F)(C2)C3)CCN1Cc1cc(-c2cccnc2)no1` [Example 240, 1-(3-fluorobicyclo[1.1.1]pentan-1-yl)-4-((3-(pyridin-3-yl)isoxazol-5-yl)methyl)piperazine-2,3-dione], 995 nM; that for `O=C1C(=O)N(C23CC(F)(C2)C3)CCN1Cc1ccc(-c2cccnc2)nn1` [Example 241, 1-(3-fluorobicyclo[1.1.1]pentan-1-yl)-4-((6-(pyridin-3-yl)pyridazin-3-yl)methyl)piperazine-2,3-dione], 40 nM. The result for `O=c1c(=O)n(C2(CF)CC2)ccn1Cc1ccc(-c2ccccc2F)nn1` [Example 242, 1-(1-(fluoromethyl)cyclopropyl)-4-((6-(2-fluorophenyl)pyridazin-3-yl)methyl)-1,4-dihydropyrazine-2,3-dione] reads 32 nM.

On to `O=C1C(=O)N(C23CC(F)(C2)C3)CCN1Cc1ccc(-c2cncs2)nn1` [Example 243, 1-(3-fluorobicyclo[1.1.1]pentan-1-yl)-4-((6-(thiazol-5-yl)pyridazin-3-yl)methyl)piperazine-2,3-dione], for which the EC50 was determined as 30 nM. The result for `O=C1C(=O)N(C23CC(F)(C2)C3)CCN1Cc1ccc(-n2nccn2)cn1` [Example 244, 1-((5-(2H-1,2,3-triazol-2-yl)pyridin-2-yl)methyl)-4-(3-fluorobicyclo[1.1.1]pentan-1-yl)piperazine-2,3-dione] reads 45 nM; that for `O=c1c(=O)n(C2(CF)CC2)ccn1Cc1ccc(-c2cncs2)nn1` [Example 245, 1-(1-(fluoromethyl)cyclopropyl)-4-((6-(thiazol-5-yl)pyridazin-3-yl)methyl)-1,4-dihydropyrazine-2,3-dione], 43 nM; that for `O=c1c(=O)n(C2(CF)CC2)ccn1Cc1cc(-c2cccnc2)no1` [Example 246, 1-(1-(fluoromethyl)cyclopropyl)-4-((3-(pyridin-3-yl)isoxazol-5-yl)methyl)-1,4-dihydropyrazine-2,3-dione], 37 nM. The result for `O=c1c(=O)n(C2(CF)CC2)ccn1Cc1ccc(-n2ccnn2)nn1` [Example 247, 1-((6-(1H-1,2,3-triazol-1-yl)pyridazin-3-yl)methyl)-4-(1-(fluoromethyl)cyclopropyl)-1,4-dihydropyrazine-2,3-dione] reads 44 nM; that for `O=c1c(=O)n(C23CC(F)(C2)C3)ccn1Cc1ccc(-n2ccnn2)nn1` [Example 248, 1-((6-(1H-1,2,3-triazol-1-yl)pyridazin-3-yl)methyl)-4-(3-fluorobicyclo[1.1.1]pentan-1-yl)-1,4-dihydropyrazine-2,3-dione], 38 nM. The result for `O=C1C(=O)N(C23CC(F)(C2)C3)CCN1Cc1ccc(-n2ccnn2)nn1` [Example 249, 1-((6-(1H-1,2,3-triazol-1-yl)pyridazin-3-yl)methyl)-4-(3-fluorobicyclo[1.1.1]pentan-1-yl)piperazine-2,3-dione] reads 148 nM.
